# Measurements taken from patent publication US20160271263A1 (Novo Nordisk A/S, priority 2010, published 2016).
# pEC50: −log10 of the molar value. Numbered stars: 1 amine (or outer) side, 2 acyl side, 3 side chain; on linkers, the order of the positions; unused ones are H or OH. Side chains are listed from the residue outwards. Peptide text beside a SMILES is read from it. * marks the point of attachment. C18 diacid = O=C(O)CCCCCCCCCCCCCCCCC(=O)*; γGlu = O=C(O)[C@H](CCC(=O)[*:2])N[*:1]; AEEA = NCCOCCOCC(=O)O
# Biological target: glucagon receptor (Homo sapiens, UniProt P47871)
# Sequence (P47871 26-477): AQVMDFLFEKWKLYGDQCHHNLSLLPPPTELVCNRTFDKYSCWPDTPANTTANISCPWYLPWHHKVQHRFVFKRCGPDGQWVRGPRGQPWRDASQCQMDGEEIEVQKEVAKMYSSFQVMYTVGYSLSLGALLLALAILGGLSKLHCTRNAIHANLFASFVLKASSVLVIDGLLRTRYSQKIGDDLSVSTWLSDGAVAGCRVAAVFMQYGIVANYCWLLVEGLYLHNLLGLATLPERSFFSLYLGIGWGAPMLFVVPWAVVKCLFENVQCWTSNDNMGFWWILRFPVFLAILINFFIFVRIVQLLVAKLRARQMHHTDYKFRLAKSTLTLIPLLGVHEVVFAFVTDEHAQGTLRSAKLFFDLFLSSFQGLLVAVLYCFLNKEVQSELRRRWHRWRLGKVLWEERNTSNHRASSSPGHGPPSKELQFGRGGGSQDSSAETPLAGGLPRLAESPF
# Experiment: cell-based
row,pEC50,Compound
1,9.90,"CC(C)C[C@H](NC(=O)[C@H](Cc1ccc(O)cc1)NC(=O)[C@H](CCCNC(=N)N)NC(=O)[C@H](CO)NC(=O)[C@H](Cc1ccc(O)cc1)NC(=O)[C@H](CC(=O)O)NC(=O)[C@H](CO)NC(=O)[C@@H](NC(=O)[C@H](Cc1ccccc1)NC(=O)[C@@H](NC(=O)CNC(=O)[C@H](CCC(N)=O)NC(=O)[C@H](CO)NC(=O)[C@@H](N)Cc1c[nH]cn1)[C@@H](C)O)[C@@H](C)O)C(=O)N[C@@H](CC(=O)O)C(=O)N[C@@H](CO)C(=O)N[C@@H](CCCNC(=N)N)C(=O)N[C@@H](CCCNC(=N)N)C(=O)N[C@@H](C)C(=O)N[C@@H](CCC(N)=O)C(=O)N[C@@H](CC(=O)O)C(=O)N[C@@H](Cc1ccccc1)C(=O)N[C@H](C(=O)N[C@@H](CCCCNC(=O)CC[C@H](NC(=O)CC[C@H](NC(=O)COCCOCCNC(=O)COCCOCCNC(=O)CC[C@H](NC(=O)CCCCCCCCCCCCCCCCC(=O)O)C(=O)O)C(=O)O)C(=O)O)C(=O)N[C@@H](Cc1c[nH]c2ccccc12)C(=O)N[C@@H](CC(C)C)C(=O)N[C@@H](CC(C)C)C(=O)N[C@@H](CC(N)=O)C(=O)N[C@H](C(=O)O)[C@@H](C)O)C(C)C [Example 72, N^ε24-[(4S)-4-carboxy-4-[[(4S)-4-carboxy-4-[[2-[2-[2-[[2-[2-[2-[[(4S)-4-carboxy-4-(17-carboxyheptadecanoylamino)butanoyl]amino]ethoxy]ethoxy]acetyl]amino]ethoxy]ethoxy]acetyl]amino]butanoyl]amino]butanoyl]-[Arg^12,Lys^24,Leu^27]-Glucagon] (H-HSQGTFTSDYSRYLDSRRAQDFVK([γGlu-γGlu-AEEA-AEEA-γGlu-C18 diacid])WLLNT-OH; N-terminus and C-terminus assumed)"
2,10.80,CC(C)C[C@H](NC(=O)[C@H](Cc1c[nH]c2ccccc12)NC(=O)[C@H](CCCCNC(=O)COCCOCCNC(=O)COCCOCCNC(=O)CC[C@H](NC(=O)CCCCCCCCCCCCCCCCC(=O)O)C(=O)O)NC(=O)[C@@H](NC(=O)[C@H](Cc1ccccc1)NC(=O)[C@H](CC(=O)O)NC(=O)[C@H](CCC(N)=O)NC(=O)[C@H](C)NC(=O)[C@H](CCCNC(=N)N)NC(=O)[C@H](CCCNC(=N)N)NC(=O)[C@@H](NC(=O)[C@H](CC(=O)O)NC(=O)[C@H](CC(C)C)NC(=O)[C@H](Cc1ccc(O)cc1)NC(=O)[C@H](CCCCN)NC(=O)[C@H](CO)NC(=O)[C@H](Cc1ccc(O)cc1)NC(=O)[C@H](CC(=O)O)NC(=O)[C@H](CO)NC(=O)[C@@H](NC(=O)[C@H](Cc1ccccc1)NC(=O)[C@@H](NC(=O)CNC(=O)[C@H](CCC(N)=O)NC(=O)[C@H](CO)NC(=O)[C@@H](N)Cc1c[nH]cn1)[C@@H](C)O)[C@@H](C)O)[C@@H](C)O)C(C)C)C(=O)N[C@@H](CC(C)C)C(=O)N[C@@H](CO)C(=O)N[C@H](C(=O)O)[C@@H](C)O [Example 13] (H-HSQGTFTSDYSKYLDTRRAQDFVK([AEEA-AEEA-γGlu-C18 diacid])WLLST-OH; N-terminus and C-terminus assumed)
3,9.39,"CSCC[C@H](NC(=O)[C@H](CC(C)C)NC(=O)[C@H](Cc1c[nH]c2ccccc12)NC(=O)[C@H](CCC(N)=O)NC(=O)[C@@H](NC(=O)[C@H](Cc1ccccc1)NC(=O)[C@H](CC(=O)O)NC(=O)[C@H](CCCNC(=N)N)NC(=O)[C@H](C)NC(=O)[C@H](C)NC(=O)[C@H](CCC(N)=O)NC(=O)[C@H](CCC(=O)O)NC(=O)[C@H](CC(=O)O)NC(=O)[C@H](CC(C)C)NC(=O)[C@H](Cc1ccc(O)cc1)NC(=O)[C@H](CCCCN)NC(=O)[C@H](CO)NC(=O)[C@H](Cc1ccc(O)cc1)NC(=O)[C@H](CC(=O)O)NC(=O)[C@H](CO)NC(=O)[C@@H](NC(=O)[C@H](Cc1ccccc1)NC(=O)[C@@H](NC(=O)CNC(=O)[C@H](CCC(N)=O)NC(=O)[C@H](CO)NC(=O)[C@@H](N)Cc1c[nH]cn1)[C@@H](C)O)[C@@H](C)O)C(C)C)C(=O)N[C@@H](CC(N)=O)C(=O)N[C@H](C(=O)N[C@@H](CCCCNC(=O)COCCOCCNC(=O)COCCOCCNC(=O)CC[C@H](NC(=O)CCCCCCCCCCCCCCCCC(=O)O)C(=O)O)C(N)=O)[C@@H](C)O [Example 27, N^α ([Glu^16,Gln^17,Ala^18,Arg^20]Glucagonyl) N^ε-([2-[2-[2-[[2-[2-[2-[[(4S)-5-hydroxy-4-[(18-hydroxy-18-oxooctadecanoyl)amino]-5-oxopentanoyl]amino]ethoxy]ethoxy]acetyl]amino]ethoxy]ethoxy]acetyl]) Lysinyl amide] (H-HSQGTFTSDYSKYLDEQAARDFVQWLMNTK([AEEA-AEEA-γGlu-C18 diacid])-NH2; N-terminus assumed)"
4,9.01,"CC(C)C[C@H](NC(=O)[C@H](Cc1ccc(O)cc1)NC(=O)[C@H](CCCCN)NC(=O)[C@H](CO)NC(=O)[C@H](Cc1ccc(O)cc1)NC(=O)[C@H](CC(=O)O)NC(=O)[C@H](CO)NC(=O)[C@@H](NC(=O)[C@H](Cc1ccccc1)NC(=O)[C@@H](NC(=O)CNC(=O)[C@H](CCC(N)=O)NC(=O)[C@H](CO)NC(=O)[C@@H](N)Cc1c[nH]cn1)[C@@H](C)O)[C@@H](C)O)C(=O)N[C@@H](CC(=O)O)C(=O)N[C@@H](CO)C(=O)N[C@@H](CCCNC(=N)N)C(=O)N[C@@H](CCCNC(=N)N)C(=O)N[C@@H](C)C(=O)N[C@@H](CCC(N)=O)C(=O)N[C@@H](CC(=O)O)C(=O)N[C@@H](Cc1ccccc1)C(=O)N[C@H](C(=O)N[C@@H](CCC(N)=O)C(=O)N[C@@H](CCCCNC(=O)CC[C@H](NC(=O)CC[C@H](NC(=O)COCCOCCNC(=O)COCCOCCNC(=O)CC[C@H](NC(=O)CCCCCCCCCCCCCCCCC(=O)O)C(=O)O)C(=O)O)C(=O)O)C(=O)N[C@@H](CC(C)C)C(=O)N[C@@H](CC(C)C)C(=O)N[C@@H](CC(N)=O)C(=O)N[C@H](C(=O)O)[C@@H](C)O)C(C)C [Example 76, N^ε25-[(4S)-4-carboxy-4-[[(4S)-4-carboxy-4-[[2-[2-[2-[[2-[2-[2-[[(4S)-4-carboxy-4-(17-carboxyheptadecanoylamino)butanoyl]amino]ethoxy]ethoxy]acetyl]amino]ethoxy]ethoxy]acetyl]amino]butanoyl]amino]butanoyl]-[Lys^25,Leu^27]-Glucagon]"
5,9.35,"CC(C)C[C@H](NC(=O)[C@H](Cc1ccc(O)cc1)NC(=O)[C@H](CCCCN)NC(=O)[C@H](CO)NC(=O)[C@H](Cc1ccc(O)cc1)NC(=O)[C@H](CC(=O)O)NC(=O)[C@H](CO)NC(=O)[C@@H](NC(=O)[C@H](Cc1ccccc1)NC(=O)[C@@H](NC(=O)CNC(=O)[C@H](CCC(N)=O)NC(=O)[C@H](CO)NC(=O)[C@@H](N)Cc1c[nH]cn1)[C@@H](C)O)[C@@H](C)O)C(=O)N[C@@H](CC(=O)O)C(=O)N[C@@H](CCCCNC(=O)CC[C@H](NC(=O)CC[C@H](NC(=O)COCCOCCNC(=O)COCCOCCNC(=O)CC[C@H](NC(=O)CCCCCCCCCCCCCCCCC(=O)O)C(=O)O)C(=O)O)C(=O)O)C(=O)N[C@@H](CCCNC(=N)N)C(=O)N[C@@H](CCCNC(=N)N)C(=O)N[C@@H](C)C(=O)N[C@@H](CCC(N)=O)C(=O)N[C@@H](CCC(=O)O)C(=O)N[C@@H](Cc1ccccc1)C(=O)N[C@H](C(=O)N[C@@H](CCC(N)=O)C(=O)N[C@@H](CCCNC(=N)N)C(=O)N[C@@H](CC(C)C)C(=O)N[C@@H](CC(C)C)C(=O)N[C@@H](CC(N)=O)C(=O)N[C@H](C(=O)O)[C@@H](C)O)C(C)C [Example 100, N^ε16-[(4S)-4-carboxy-4-[[(4S)-4-carboxy-4-[[2-[2-[2-[[2-[2-[2-[[(4S)-4-carboxy-4-(17-carboxyheptadecanoylamino)butanoyl]amino]ethoxy]ethoxy]acetyl]amino]ethoxy]ethoxy]acetyl]amino]butanoyl]amino]butanoyl]-[Lys^16,Glu^21,Arg^25,Leu^27]-Glucagon] (H-HSQGTFTSDYSKYLDK([γGlu-γGlu-AEEA-AEEA-γGlu-C18 diacid])RRAQEFVQRLLNT-OH)"
6,10.66,CC(C)C[C@H](NC(=O)[C@H](Cc1ccc(O)cc1)NC(=O)[C@H](CCCCN)NC(=O)[C@H](CO)NC(=O)[C@H](Cc1ccc(O)cc1)NC(=O)[C@H](CC(=O)O)NC(=O)[C@H](CO)NC(=O)[C@@H](NC(=O)[C@H](Cc1ccccc1)NC(=O)[C@@H](NC(=O)CNC(=O)[C@H](CCC(N)=O)NC(=O)[C@H](CO)NC(=O)[C@@H](N)Cc1c[nH]cn1)[C@@H](C)O)[C@@H](C)O)C(=O)N[C@@H](CC(=O)O)C(=O)N[C@@H](CO)C(=O)N[C@@H](CCCCN)C(=O)N[C@@H](CCCNC(=N)N)C(=O)N[C@@H](C)C(=O)N[C@@H](CCC(N)=O)C(=O)N[C@@H](CCC(=O)O)C(=O)N[C@@H](Cc1ccccc1)C(=O)N[C@H](C(=O)N[C@@H](CCCCNC(=O)COCCOCCNC(=O)COCCOCCNC(=O)CC[C@H](NC(=O)CCCCCCCCCCCCCCCCC(=O)O)C(=O)O)C(=O)N[C@@H](Cc1c[nH]c2ccccc12)C(=O)N[C@@H](CC(C)C)C(=O)N[C@@H](CC(C)C)C(=O)N[C@@H](CC(N)=O)C(=O)N[C@H](C(=O)O)[C@@H](C)O)C(C)C [Example 4] (H-HSQGTFTSDYSKYLDSKRAQEFVK([AEEA-AEEA-γGlu-C18 diacid])WLLNT-OH; N-terminus and C-terminus assumed)
7,9.72,"CC(C)C[C@H](NC(=O)[C@H](Cc1ccc(O)cc1)NC(=O)[C@H](CCCCN)NC(=O)[C@H](CO)NC(=O)[C@H](Cc1ccc(O)cc1)NC(=O)[C@H](CC(=O)O)NC(=O)[C@H](CO)NC(=O)[C@@H](NC(=O)[C@H](Cc1ccccc1)NC(=O)[C@@H](NC(=O)CNC(=O)[C@H](CCC(N)=O)NC(=O)[C@H](CO)NC(=O)[C@@H](N)Cc1c[nH]cn1)[C@@H](C)O)[C@@H](C)O)C(=O)N[C@@H](CC(=O)O)C(=O)N[C@@H](CO)C(=O)N[C@@H](CCCNC(=N)N)C(=O)N[C@@H](CCCNC(=N)N)C(=O)N[C@@H](C)C(=O)N[C@@H](CCC(N)=O)C(=O)N[C@@H](CC(=O)O)C(=O)N[C@@H](Cc1ccccc1)C(=O)N[C@H](C(=O)N[C@@H](CCC(N)=O)C(=O)N[C@@H](Cc1c[nH]c2ccccc12)C(=O)N[C@@H](CC(C)C)C(=O)N[C@@H](CC(C)C)C(=O)N[C@@H](CCCCNC(=O)CC[C@H](NC(=O)CC[C@H](NC(=O)COCCOCCNC(=O)COCCOCCNC(=O)CC[C@H](NC(=O)CCCCCCCCCCCCCCCCC(=O)O)C(=O)O)C(=O)O)C(=O)O)C(=O)N1CCC[C@H]1C(=O)O)C(C)C [Example 86, N^ε28-[(4S)-4-carboxy-4-[[(4S)-4-carboxy-4-[[2-[2-[2-[[2-[2-[2-[[(4S)-4-carboxy-4-(17-carboxyheptadecanoylamino)butanoyl]amino]ethoxy]ethoxy]acetyl]amino]ethoxy]ethoxy]acetyl]amino]butanoyl]amino]butanoyl]-[Leu^27,Lys^28,Pro^29]-Glucagon]"
